Earlier results, collected in patent US20050043536A1, “Sulfonamides” (priority 2001, published 2005).

System: rat-isolated aorta

In the case of CC(C)[C@H](NC(=O)[C@@H]1CSSC[C@H](NC(=O)[C@H](CC(=O)O)NC(=O)[C@@H]2CCCN2C(=O)[C@@H](NC(=O)[C@@H](N)CCC(=O)O)[C@@H](C)O)C(=O)N[C@@H](Cc2ccccc2)C(=O)N[C@@H](Cc2c[nH]c3ccccc23)C(=O)N[C@@H](CCCCN)C(=O)N[C@@H](Cc2ccc(O)cc2)C(=O)N1)C(=O)O [Human Urotensin-II], the contractile activity is given as “the most potent contractile agonist identified to date”.
